From patent US9808448B2, “Pharmaceutical compounds and use of same in cancer and tauopathies” (THE REGENTS OF THE UNIVERSITY OF MICHIGAN, priority 2013, dated 2017)

Assays:
[1] = test system: phospho- and total tau in brain slices from transgenic P301L tau mice (Tg4510); assay: Tau levels in transgenic brain slice cultures; type: cell-based, mouse; conditions: 30 and 100 μM, 6 hours
Description: YM-08 activity in a more physiological system was tested. Brain slice cultures from transgenic mice that express mutated tau were treated for 6 hours with YM-08 and the levels of total- and pS396/404 tau measured by Western blots. […] To test whether YM-08 might selectively reduce tau after microtubule disruption, brain slices were cultured from wild type mice and treated them with YM-08 plus the microtubule destabilizer, nocodazole. […] Together, these studies add to growing evidence that Hsp70 selectively identifies tau variants that are not associated with the normal microtubule network, likely minimizing their aggregation and proteotoxicity.

[2] = t1/2 in tau activity screen table; type: in vitro ADME; conditions: liver microsomes; matrix not stated
human Hsc70 = molecular target: T1, human Hsc70 (Homo sapiens, UniProt P11142); assay: Binding of tau to immobilized human Hsc70; type: biochemical
T1 construct: made in house
Description: Next, the effect of chaperone functions by binding of YM-08 to Hsp70 was investigated. […] This profile is shared with other allosteric Hsp70 inhibitors. As another test of chaperone function, the effects of the compounds on the binding of Hsp70 to a misfolded protein were measured. In previous work, MKT-077 stabilized the interaction between prokaryotic Hsp70 (DnaK) and denatured luciferase. Briefly, this assay involves immobilizing unfolded luciferase in microtiter plates and measuring binding to DnaK. […] To explore whether YM-08 might also enhance binding of Hsp70 to a more physiologically relevant substrate, binding of tau to immobilized human Hsc70 was measured.
Binding of prokaryotic Hsp70 (DnaK) to denatured luciferase was measured as previously described, in e.g., Miyata, et al., J. Biomol. Screen, 15:1211-1219 (2010). Briefly, firefly luciferase (0.2 mg/mL) was proteolyzed with trypsin and immobilized in 96-well microtiter plates. After washing, the binding of luciferase to DnaK (500 nM) was measured using an anti-DnaK antibody and HRP secondary antibody. A similar strategy was used to monitor binding of human Hsc70 to tau, as previously described in Thompson, et al., ACS Chem. Biol., 7:1677-1686 (2012).

human Hsc70 (HSPA8) = molecular target: T2, human Hsc70 (HSPA8) (Homo sapiens, UniProt P11142); assay: ELISA competitive binding assay (biotinylated MKT-077 displacement); conditions: competitive ELISA, biotin labeled MKT-077 1 μM
T2 construct: made in house
Description: Binding of MKT-077 analogs to immobilized Hsp70 was evaluated using a competitive ELISA. In this established assay, a biotinylated version of MKT-077 is bound to immobilized human Hsc70 (HSPA8) and potential competitors are tested for their ability to block the interaction.
A sample of Hsc70 (50 μL; 0.06 mg/mL) was immobilized in clear flat-bottom 96-well plate in MES buffer (50 mM 2-(N-morpholino)ethanesulfonic acid, pH 5.2) at 37° C. overnight. After discarding the excess protein solution, each well was washed three times with 150 μL TBS-T buffer (25 mM Tris, 140 mM NaCl, 2.7 mM KCl, 0.01% Tween-20, pH 7.4). Then, 1 μL of compound (1% DMSO) was diluted into 24 μL of binding buffer (100 mM Tris, 20 mM KCl, 6 mM MgCl2, 0.01% Triton-X100) and incubated at room temperature for 30 min. Biotin labeled MKT-077 (final concentration 1 μM; 25 μL) was subsequently added into each well and the mixture was incubated at room temperature for another 3 hrs. The wells were washed with 150 μL TBS-T buffer three times prior to blocking with 100 μL 3% bovine serum albumin (BSA) in TBS-T buffer for 5 min at room temperature. After the removal of the BSA solution, 50 μL of HRP-streptavidin (Pierce Biotechnology, 1:50000 TBS-T dilution) solution was added and the plates were incubated at room temperature for 1 hr. The HRP-streptavidin solution was removed and wells were washed three times with 150 μL TBS-T. […] substrate (Cell Signaling Technology 100 μL) was added into each well and incubated at room temperature until a visible blue color was shown in wells (about 20 min). 1 M HCl stop solution was then added into each well to yield a yellow solution and the absorbance at 450 nm was recorded on SpectraMax M5 (Molecular Devices).

T1 sequence (P11142 2-646): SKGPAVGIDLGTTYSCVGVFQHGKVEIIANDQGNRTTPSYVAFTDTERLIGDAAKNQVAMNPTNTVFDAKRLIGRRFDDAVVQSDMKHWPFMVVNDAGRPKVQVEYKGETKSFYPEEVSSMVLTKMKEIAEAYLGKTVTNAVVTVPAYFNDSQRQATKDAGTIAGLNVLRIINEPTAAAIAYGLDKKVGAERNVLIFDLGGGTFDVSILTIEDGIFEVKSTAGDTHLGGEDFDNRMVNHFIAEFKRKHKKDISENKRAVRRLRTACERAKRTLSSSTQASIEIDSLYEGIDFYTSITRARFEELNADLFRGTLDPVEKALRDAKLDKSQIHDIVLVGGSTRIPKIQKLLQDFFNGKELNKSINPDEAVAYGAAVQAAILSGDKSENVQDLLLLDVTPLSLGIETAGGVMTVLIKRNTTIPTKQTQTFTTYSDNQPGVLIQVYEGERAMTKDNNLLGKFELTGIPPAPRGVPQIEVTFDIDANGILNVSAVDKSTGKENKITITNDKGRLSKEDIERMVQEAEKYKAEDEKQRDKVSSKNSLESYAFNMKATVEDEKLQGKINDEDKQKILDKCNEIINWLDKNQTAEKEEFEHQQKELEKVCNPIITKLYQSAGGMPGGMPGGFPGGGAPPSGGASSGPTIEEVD
T2 sequence (P11142 whole entry): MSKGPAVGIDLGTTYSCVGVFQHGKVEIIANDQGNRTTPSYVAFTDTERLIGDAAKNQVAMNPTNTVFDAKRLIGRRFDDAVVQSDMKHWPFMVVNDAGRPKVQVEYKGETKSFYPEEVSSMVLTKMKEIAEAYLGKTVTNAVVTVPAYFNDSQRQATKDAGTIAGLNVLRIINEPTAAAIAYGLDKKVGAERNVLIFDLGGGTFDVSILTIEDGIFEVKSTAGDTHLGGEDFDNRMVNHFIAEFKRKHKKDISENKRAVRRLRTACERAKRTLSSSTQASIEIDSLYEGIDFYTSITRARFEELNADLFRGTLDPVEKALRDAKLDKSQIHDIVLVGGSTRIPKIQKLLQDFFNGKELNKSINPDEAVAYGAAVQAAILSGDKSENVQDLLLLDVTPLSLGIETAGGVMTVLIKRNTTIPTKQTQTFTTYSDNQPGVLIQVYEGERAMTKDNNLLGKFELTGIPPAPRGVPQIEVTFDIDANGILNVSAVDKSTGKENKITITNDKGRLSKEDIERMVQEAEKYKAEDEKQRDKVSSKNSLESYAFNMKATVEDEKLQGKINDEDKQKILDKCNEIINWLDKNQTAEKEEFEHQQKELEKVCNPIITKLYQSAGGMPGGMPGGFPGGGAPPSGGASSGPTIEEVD

Structure (SMILES): CCn1c(=O)/c(=C2\Sc3ccccc3N2C)s/c1=C\c1ccccn1 [YM-08, (2Z,5E)-3-ethyl-5-(3-methylbenzo[d]thiazol-2(3H)-ylidene)-2-(pyridin-2-ylmethylene)thiazolidin-4-one]
- phospho-tau level [1]: reduced phospho-tau
- half-life [2]: < 3 min
- affinity of chaperone for tau substrate (human Hsc70): enhanced the affinity
- IC50 (human Hsc70 (HSPA8)): 610 ± 50 nM
